Patent US20110183969A1, “ANTIFUNGAL COMBINATION THERAPY” (priority 2008, published 2011)
Converted amounts (≈) assume the structure as drawn.

Experiments:
Test in all cases: MIC (YAG medium)
Type in all cases: cell-based
Aspergillus flavus = conditions: YAG medium, MIC banded into grades; for MIC: Aspergillus flavus, read-out: MIC A. flavus (grade)
Summary of the method: (§1)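 Growth inhibition was determined by optical density at 485 nm after a 24-hour incubation at 35° C in glucose/ammonium chloride/yeast extract (YAG) medium. MICs, expressed in mg/L, were taken as the lowest drug level reducing growth by more than 70% relative to untreated wells.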

[1] = system: Aspergillus fumigatus AF210; conditions: YAG medium, MIC banded into grades, AF210; for MIC: Aspergillus fumigatus, read-out: MIC A. fumigatus 210 (grade)
Summary of the method: as §1

[2] = system: Aspergillus fumigatus AF293; conditions: YAG medium, MIC banded into grades, AF293; for MIC: Aspergillus fumigatus, read-out: MIC A. fumigatus (grade)
Summary of the method: as §1

Aspergillus niger = conditions: YAG medium, MIC banded into grades; for MIC: Aspergillus niger, read-out: MIC A. niger (grade)
Summary of the method: as §1

Aspergillus terreus AT49 = conditions: YAG medium, MIC banded into grades, AT49; for MIC: Aspergillus terreus, read-out: MIC A. terreus 49 (grade)
Summary of the method: as §1

Aspergillus terreus AT4 = conditions: YAG medium, MIC banded into grades, AT4; for MIC: Aspergillus terreus, read-out: MIC A. terreus (grade)
Summary of the method: as §1

Row | Compound | MIC (Aspergillus flavus) | MIC [1] | MIC [2] | MIC (Aspergillus niger) | MIC (Aspergillus terreus AT49) | MIC (Aspergillus terreus AT4) | MIC A. flavus (grade) (Aspergillus flavus) | MIC A. fumigatus 210 (grade) [1] | MIC A. fumigatus (grade) [2] | MIC A. niger (grade) (Aspergillus niger) | MIC A. terreus 49 (grade) (Aspergillus terreus AT49) | MIC A. terreus (grade) (Aspergillus terreus AT4)
1 | Cc1cc(C)nc(N2CCC(O)(c3ccc(NC(=O)C(=O)c4c(-c5ccccc5)cc5ccccn45)cc3)CC2)c1 [Example 79, N-[4-(4-hydroxy-4′,6′-dimethyl-3,4,5,6-tetrahydro-2H-[1,2′]-bipyridinyl-4-yl)-phenyl]-2-oxo-2-(2-phenyl-indolizin-3-yl)-acetamide] | > 10 µg/mL | > 10 µg/mL | > 10 µg/mL | > 10 µg/mL | > 10 µg/mL | > 10 µg/mL |  |  |  |  |  | 
2 | O=C(Nc1ccc(N2CCN(c3ccccn3)CC2)cc1)C(=O)c1c(-c2ccccc2)cc2ccc(F)cn12 [Example 42, 2-(6-Fluoro-2-phenyl-indolizin-3-yl)-2-oxo-N-[4-(4-pyridin-2-yl-piperazin-1-yl)phenyl] acetamide] |  |  |  |  |  |  | 3 (A grade of 3 represents an MIC of less than 1 mg/L) | 3 (A grade of 3 represents an MIC of less than 1 mg/L) | 3 (A grade of 3 represents an MIC of less than 1 mg/L) | 3 (A grade of 3 represents an MIC of less than 1 mg/L) | 3 (A grade of 3 represents an MIC of less than 1 mg/L) | 3 (A grade of 3 represents an MIC of less than 1 mg/L)
3 | Cc1cc(C)nc(N2CCN(c3ccc(NC(=O)C(=O)c4c(C5CCCCC5)cc5ccccn45)cc3)CC2)c1 [Example 60, 2-(2-Cyclohexyl-indolizin-3-yl)-N-{4-[4-(4,6-dimethyl-pyridin-2-yl)-piperazin-1-yl]-phenyl}-2-oxo-acetamide] | < 1 µg/mL | < 1 µg/mL | < 1 µg/mL | < 1 µg/mL | < 1 µg/mL | < 1 µg/mL |  |  |  |  |  | 
4 | N-{4-[4-(2,6-Dimethyl-pyrimidin-4-yl)-piperazin-1-yl]-phenyl}-2-(2-phenyl-indolizin-3-yl)-acetamide [Example 45] |  |  |  |  |  |  | 3 (A grade of 3 represents an MIC of less than 1 mg/L) | 3 (A grade of 3 represents an MIC of less than 1 mg/L) | 3 (A grade of 3 represents an MIC of less than 1 mg/L) | 2 (A grade of 2 represents an MIC of from 1 to 10) | 3 (A grade of 3 represents an MIC of less than 1 mg/L) | 3 (A grade of 3 represents an MIC of less than 1 mg/L)
5 | Cc1cccc(N2CCN(c3ccc(NC(=O)C(=O)c4c(-c5ccccc5)cc5ccccn45)cc3)CC2)n1 [Example 43, N-{4-[4-(6-Methyl-pyridin-2-yl)-piperazin-1-yl]-phenyl}-2-oxo-2-(2-phenyl-indolizin-3-yl)-acetamide] | < 1 µg/mL | < 1 µg/mL | < 1 µg/mL | < 1 µg/mL | < 1 µg/mL | < 1 µg/mL |  |  |  |  |  | 
6 | CC(C)c1nccn1CCOC(=O)C(C)(C)c1cccc(NC(=O)C(=O)c2c(-c3ccccc3)cc3ccccn23)c1 [Example 22, 2-Methyl-2-{3-[2-oxo-2-(2-phenyl-indolizin-3-yl)-acetylamino]-phenyl}-propionic acid 2-(2-isopropyl-imidazol-1-yl)-ethyl ester] | 1 to 10 µg/mL (≈ 1.78 to 17.8 µM) | > 10 µg/mL | > 10 µg/mL | > 10 µg/mL | 1 to 10 µg/mL (≈ 1.78 to 17.8 µM) | 1 to 10 µg/mL (≈ 1.78 to 17.8 µM) |  |  |  |  |  | 
7 | Cc1c(-c2ccccc2)c2ccccn2c1C(=O)C(=O)Nc1ccc(N2CCOCC2)cc1 [Example 7, 2-(2-methyl-1-phenyl-indolizin-3-yl)-N-(4-morpholin-4-yl-phenyl)-2-oxo-acetamide] | > 10 µg/mL | > 10 µg/mL | > 10 µg/mL | > 10 µg/mL | > 10 µg/mL | > 10 µg/mL |  |  |  |  |  | 
8 | CN1CCN(c2oc(-c3ccc(NC(=O)C(=O)c4c(-c5ccccc5)cc5ccccn45)cc3)nc2C(=O)C(F)(F)F)CC1 [Example 29, N-{4-[5-(4-Methyl-piperazin-1-yl)-4-(2,2,2-trifluoro-acetyl)-oxazol-2-yl]-phenyl}-2-oxo-2-(2-phenyl-indolizin-3-yl)-acetamide] | < 1 µg/mL | 1 to 10 µg/mL (≈ 1.66 to 16.6 µM) | < 1 µg/mL | < 1 µg/mL | < 1 µg/mL | < 1 µg/mL |  |  |  |  |  | 
9 | O=C(Nc1ccc(NCCOc2ccccn2)cc1)C(=O)c1c(-c2ccccc2)cc2ccccn12 [Example 90, 2-Oxo-2-(2-phenyl-indolizin-3-yl)-N-{4-[2-(pyridin-2-yloxy)-ethylamino]-phenyl}-acetamide] | < 1 µg/mL | < 1 µg/mL | < 1 µg/mL | < 1 µg/mL | < 1 µg/mL | < 1 µg/mL |  |  |  |  |  | 
10 | Cc1cc(C)nc(N2CCN(c3ccc(NC(=O)C(=O)c4c(C5CCOCC5)cc5ccccn45)cc3)CC2)c1 [Example 66, N-{4-[4-(4,6-Dimethyl-pyridin-2-yl)-piperazin-1-yl]-phenyl}-2-oxo-2-[2-(tetrahydro-pyran-4-yl)-indolizin-3-yl]-acetamide] | < 1 µg/mL | < 1 µg/mL | < 1 µg/mL | < 1 µg/mL | < 1 µg/mL | < 1 µg/mL |  |  |  |  |  | 
11 | C=C(C)CN1CCN(c2ccc(NC(=O)C(=O)c3c(-c4ccc(N5CCOCC5)cc4)cc4ccccn34)cc2)CC1 [Example 40, N-{4-[4-(2-Methyl-allyl)-piperazin-1-yl]-phenyl}-2-[2-(4-morpholin-4-yl-phenyl)-indolizin-3-yl]-2-oxo-acetamide] | 1 to 10 µg/mL (≈ 1.77 to 17.7 µM) | > 10 µg/mL | > 10 µg/mL | > 10 µg/mL | > 10 µg/mL | > 10 µg/mL |  |  |  |  |  | 
12 | Cc1cc(C)nc(N(C)CCNc2ccc(NC(=O)C(=O)c3c(-c4ccccc4)cc4ccccn34)cc2)c1 [Example 78, N-(4-{2-[(4,6-Dimethyl-pyridin-2-yl)-methyl-amino]-ethylamino}-phenyl)-2-oxo-2-(2-phenyl-indolizin-3-yl)-acetamide] | < 1 µg/mL | < 1 µg/mL | < 1 µg/mL | < 1 µg/mL | < 1 µg/mL | < 1 µg/mL |  |  |  |  |  | 
13 | COc1ccc(NC(=O)C(=O)c2c(C)c(-c3ccccc3)c3ccccn23)cc1 [Example 6, N-(4-methoxy-phenyl)-2-(2-methyl-1-phenyl-indolizin-3-yl)-2-oxo-acetamide] | > 10 µg/mL | > 10 µg/mL | > 10 µg/mL | > 10 µg/mL | > 10 µg/mL | > 10 µg/mL |  |  |  |  |  | 
14 | N-(4-{3-[(4,6-Dimethyl-pyridin-2-yl)-methyl-amino]-propyl}-phenyl)-2-oxo-2-(2-phenyl-indolizin-3-yl)-acetamide [Example 70] |  |  |  |  |  |  | 3 (A grade of 3 represents an MIC of less than 1 mg/L) | 3 (A grade of 3 represents an MIC of less than 1 mg/L) | 3 (A grade of 3 represents an MIC of less than 1 mg/L) | 3 (A grade of 3 represents an MIC of less than 1 mg/L) | 3 (A grade of 3 represents an MIC of less than 1 mg/L) | 3 (A grade of 3 represents an MIC of less than 1 mg/L)
15 | O=C(Nc1cnccc1N1CCN(Cc2cccs2)CC1)C(=O)c1c(-c2ccccc2)cc2ccccn12 [Example 37, 2-Oxo-2-(2-phenyl-indolizin-3-yl)-N-[4-{4-thiophen-2-ylmethyl-piperazin-1-yl}-pyridine-3-yl]-acetamide] | < 1 µg/mL | < 1 µg/mL | < 1 µg/mL | < 1 µg/mL | < 1 µg/mL | < 1 µg/mL |  |  |  |  |  | 
16 | CN1CCN(c2ccc(NC(=O)C(=O)c3c(-c4ccccc4)cc4ccccn34)cc2-c2ncco2)CC1 [Example 19, N-[4-(4-methyl-piperazin-1-yl)-3-oxazol-2-yl-phenyl]-2-oxo-2-(2-phenyl-indolizin-3-yl)-acetamide] | > 10 µg/mL | > 10 µg/mL | > 10 µg/mL | > 10 µg/mL | 1 to 10 µg/mL (≈ 1.98 to 19.8 µM) | 1 to 10 µg/mL (≈ 1.98 to 19.8 µM) |  |  |  |  |  | 
17 | CC(C)(C)CN1CCN(c2ccc(NC(=O)C(=O)c3c(-c4ccccc4)cc4ccccn34)nc2)CC1 [Example 50, N-{5-[4-(2,2-Dimethyl-propyl)-piperazin-1-yl]-pyridin-2-yl}-2-oxo-2-(2-phenyl-indolizin-3-yl)-acetamide] | < 1 µg/mL | < 1 µg/mL | < 1 µg/mL | < 1 µg/mL | < 1 µg/mL | < 1 µg/mL |  |  |  |  |  | 
18 | O=C(Nc1ccc(N2CCN(S(=O)(=O)c3cccnc3)CC2)cc1)C(=O)c1c(-c2ccccc2)cc2ccccn12 [Example 51, 2-Oxo-2-(2-phenyl-indolizin-3-yl)-N-{4-[4-(pyridine-3-sulfonyl)-piperazin-1-yl]-phenyl}-acetamide] | < 1 µg/mL | < 1 µg/mL | < 1 µg/mL | < 1 µg/mL | < 1 µg/mL | < 1 µg/mL |  |  |  |  |  | 
19 | C=C1CCN(c2ccc(NC(=O)C(=O)c3c(-c4cccnc4C)cc4ccccn34)cc2)CC1 [Example 46, N-[4-(4-Methylene-piperidin-1-yl)-phenyl]-2-[2-(2-methyl-pyridin-3-yl)-indolizin-3-yl]-2-oxo-acetamide] | < 1 µg/mL | < 1 µg/mL | < 1 µg/mL | < 1 µg/mL | < 1 µg/mL | < 1 µg/mL |  |  |  |  |  | 
